Laboratory results: patent US6395893B1, “Crystallization of lactitol, crystalline lactitol product and use thereof” (Xyrofin Oy, priority 2000, dated 2002)
Where two headings read alike, the source gives them in different places.

Key:
Format in all cases: physicochemical
Bulk density = conditions: tapped 10 times
Experimental: (§1) Flowability: A 500 g sample was poured to a 500 ml measuring cylinder. The sample was tapped 10 times, levelled and the amount of the sample was weighed.

[1] = Tablet friability (Key Instruments friability tester); conditions: for Friability (10 tabs): tablet, percentage weight loss, dropped 100 times
Experimental: (§2) The material under evaluation was mixed in a laboratory scale Turbula mixer for 2 minutes with 0.5% magnesium stearate as lubricant. The mixed sample was then tabletted on a Manesty 2C single punch press using a 15 mm diameter flat-faced bevelled edge punch. The compression force was adjusted by altering the drop of the top punch. The compression force is indicated by an arbitrary figure. The higher the number, the greater the compression. These figures can only be used as a comparison for each series of compressions. As soon as the material is changed or any of the machine settings are altered the numbers cannot be compared. The adjustment is such that it cannot be exactly reproduced, therefore, these figures should only be seen as a means of differentiating between samples and indicating either increasing or decreasing compression force. Tablet friability was measured using a Key Instruments friability tester. Ten tablets were dropped 100 times and the percentage weight loss recorded. Any tablets that are badly chipped are removed prior to weighing.

[2] = Particle size analysis of chocolate; conditions: chocolate made with the lactitol
Experimental: (§3) The milk powder, microcrystalline lactitol, Litesse II (modified polydextrose), vanillin and cocoa liquor were mixed in a Stephan mixer with a portion of the cocoa butter. The mixture was passed through a three roll refiner to produce a flake. The flake was mixed again in the Stephan mixer and a farther portion of cocoa butter was added. The mix was re-refined with the pressures increased to produce a flake with an acceptable particle size.
There was an insignificant increase in the particle size of the chocolate made using microcrystalline lactitol (10-12 μm) compared to the one with lactitol monohydrate (9-10 μm).

[3] = Particle size distribution by sieve analysis; conditions: for Coefficient of variation: of particle size
From the text: Particle size distribution: Sieve analysis was used to determine the particle size.

[4] = Viscosity of chocolate on storage (Haake RV20 viscometer); conditions: chocolate made with the lactitol, held at 50° C. for one week
Experimental: as §3
The resulting flakes were stored ready for conching. Prior to conching the flakes were pre-warmed in an oven set to 50° C. The flake was added to a conche with the temperature set to 60° C. On loading the remaining cocoa butter was added to give a final fat content of 35 %. A small amount of the lecithin was added at this stage. The sample was conched for 24 hours. The remaining lecithin was added I hour prior to the removal of the batch from the conche.
For the sake of comparison the procedure was repeated identically with another batch except that the microcrystalline lactitol was replaced by standard crystalline lactitol monohydrate (Lactitol MC, Xyrofin Oy).
The viscosity of the two samples was measured using a Haake RV20 viscometer with an RC20 rheocontroller fitted. […]

[5] = Tablet hardness (Key Instruments hardness tester); conditions: for Hardness / Hardness (in brackets): tablet; for Hardness: 24 hours after production; for Hardness (in brackets): analysis performed during production; for Maximum hardness: tablets over the range of compression forces
Experimental: as §2, with “hardness” for “friability”, “tablet hardness tester which measures the force required to break the tablet across its diameter.” for “friability tester.”, “tested” for “dropped 100 times”, “an average reading” for “the percentage weight loss”, “recorded.” for “recorded. Any tablets that are badly chipped are removed prior to weighing.”

[6] = Heat of solution (calorimeter); conditions: 40 g in 670 g distilled water at 25° C.
Experimental: Heat of solution: 40 g of the sample was dissolved in 670 g of distilled water at 25° C. The heat of solution was measured with a calorimeter operating in a constant temperature environment.

[7] = Hygroscopicity (humidity cabinet)
Experimental: Hygroscopicity: 10 g of the sample was weighed to a petri dish. The open dish was put into a humidity cabinet. The change in weight was measured. The humidity cabins at 25° C. and relative humidity 60% and at 40° C. and relative humidity 70% were used.

Rate of solution = conditions: 100 g in 100 g of water at 20° C., paddle mixer 250 rpm
Experimental: Rate of solution: 100 g of the sample was put in 100 g of water at 20° C. and 40° C. A small paddle mixer, 250 rpm, was used to mix the solution. During the dissolution the refractive index was measured.

Flowability = experiment: Flowability
Experimental: as §1

[8] = Water content (Karl Fischer)
Experimental: The water content of the microcrystalline lactitol product was analyzed by the Karl Fischer method and the melting behaviour was measured by differential scanning calorimetry (DSC).
Moisture was measured using coulometric Karl Fischer titration

[9] = compression 32.5, listed as Microcrystalline Lactitol Sample
[10] = compression 33, listed as Microcrystalline Lactitol Sample
[11] = compression 33.5, listed as Microcrystalline Lactitol Sample
[12] = compression 34, listed as Microcrystalline Lactitol Sample

OC[C@@H](O)[C@@H](O[C@@H]1O[C@H](CO)[C@H](O)[C@H](O)[C@H]1O)[C@H](O)[C@@H](O)CO [microcrystalline lactitol, lactitol]
Bulk density (Bulk density): 325 g/500 ml
Friability (10 tabs) ([1]; compression 32): 1.31%
Friability (10 tabs) [1, 9]: 0.32%
Friability (10 tabs) [1, 10]: 0.22%
Friability (10 tabs) [1, 11]: 0.5%
Friability (10 tabs) [1, 12]: 0.38%
Friability (10 tabs) ([1]; compression 34.5): 0.69%
Particle size of the chocolate [2]: 10-12 μm
Mean particle size [3]: 0.29 mm
Sieve analysis 0 [3]: 1.6
Sieve analysis >0.100 mm [3]: 13.0
Sieve analysis >0.180 mm [3]: 21.1
Sieve analysis >0.250 mm [3]: 21.6
Sieve analysis >0.315 mm [3]: 31.5
Sieve analysis >0.450 mm [3]: 8.3
Sieve analysis >0.560 mm [3]: 2.3
Sieve analysis >0.710 mm [3]: 0.6
Coefficient of variation [3]: 39
Viscosity change of chocolate on storage [4]: no significant increase in viscosity
Hardness ([5]; compression 32 (arbitrary figure)): 90 N
Hardness (in brackets) ([5]; compression 32): 85 N
Hardness ([5]; compression 32.5 (arbitrary figure), listed as Microcrystalline Lactitol Sample): 156 N
Hardness (in brackets) [5, 9]: 137 N
Hardness ([5]; compression 33 (arbitrary figure), listed as Microcrystalline Lactitol Sample): 252 N
Hardness (in brackets) [5, 10]: 257 N
Hardness ([5]; compression 33.5 (arbitrary figure), listed as Microcrystalline Lactitol Sample): 319 N
Hardness (in brackets) [5, 11]: (301) N
Hardness ([5]; compression 34 (arbitrary figure), listed as Microcrystalline Lactitol Sample): 134 N
Hardness (in brackets) [5, 12]: (335) N
Hardness ([5]; compression 34.5 (arbitrary figure)): 330 N
Hardness (in brackets) ([5]; compression 34.5): (344) N
Heat of solution [6]: 15.4 cal/g
Water sorption ([7]; 25° C. and 60% relative humidity): 0.05%
Water sorption ([7]; 40° C. and 70% relative humidity): 0.11%
Time to dissolve (Rate of solution): 4 min
Flowability (Flowability): 17 s
Water content of the product ([8]; Karl Fischer method): 3.5%
Moisture ([8]; coulometric Karl Fischer titration): 5.1%

OC[C@@H](O)[C@@H](O[C@@H]1O[C@H](CO)[C@H](O)[C@H](O)[C@H]1O)[C@H](O)[C@@H](O)CO [Granulated Lactitol, lactitol]
Friability (10 tabs) ([1]; compression 32.5): 4.7%
Friability (10 tabs) ([1]; compression 33): 1.79%
Friability (10 tabs) ([1]; compression 33.5): 1.08%
Friability (10 tabs) ([1]; compression 34): 0.34%
Hardness ([5]; compression 32.5 (arbitrary figure)): 70 N
Hardness (in brackets) ([5]; compression 32.5): 82 N
Hardness ([5]; compression 33 (arbitrary figure)): 139 N
Hardness (in brackets) ([5]; compression 33): 133 N
Hardness ([5]; compression 33.5 (arbitrary figure)): 193 N
Hardness (in brackets) ([5]; compression 33.5): 213 N
Hardness ([5]; compression 34 (arbitrary figure)): 240 N
Hardness (in brackets) ([5]; compression 34): 307 N
Maximum hardness [5]: 240 N

OC[C@@H](O)[C@@H](O[C@@H]1O[C@H](CO)[C@H](O)[C@H](O)[C@H]1O)[C@H](O)[C@@H](O)CO [lactitol monohydrate]
Bulk density (Bulk density; monohydrate): 360 g/500 ml
Friability results (in words) ([1]; tablets, all compression forces): all of the tablets totally disintegrating during the test
Particle size of the chocolate ([2]; monohydrate): 9-10 μm
Mean particle size ([3]; monohydrate): 0.47 mm
Sieve analysis 0 ([3]; monohydrate): 0.0
Sieve analysis >0.100 mm ([3]; monohydrate): 0.7
Sieve analysis >0.180 mm ([3]; monohydrate): 4.8
Sieve analysis >0.250 mm ([3]; monohydrate): 15.1
Sieve analysis >0.315 mm ([3]; monohydrate): 25.8
Sieve analysis >0.450 mm ([3]; monohydrate): 20.6
Sieve analysis >0.560 mm ([3]; monohydrate): 17.9
Sieve analysis >0.710 mm ([3]; monohydrate): 15.2
Coefficient of variation ([3]; monohydrate): 30
Viscosity change of chocolate on storage ([4]; monohydrate): considerable thickening
Maximum hardness ([5]; listed as crystalline lactitol monohydrate, monohydrate): < 70 N
Heat of solution ([6]; monohydrate): 15.6 cal/g
Water sorption ([7]; 25° C. and 60% relative humidity, listed as the monohydrate, monohydrate): 0.02%
Water sorption ([7]; 40° C. and 70% relative humidity, listed as the monohydrate, monohydrate): 0.04%
Time to dissolve (Rate of solution; listed as the monohydrate, monohydrate): about 5 minutes
Flowability (Flowability; monohydrate): 23 s
